Test results reported in ChEMBL document CHEMBL1147032, “Design, synthesis, and biological evaluation of substituted 2-alkylthio-1,5-diarylimidazoles as selective COX-2 inhibitors” (Bioorg Med Chem, 2007).

Tests used:
Rattus norvegicus [1] = test: Antiinflammatory activity against carrageenan-induced paw edema in Sprague-Dawley rat at 50 mg/kg, po after 3 hrs; assay type: functional
[2] = target: T1, Prostaglandin G/H synthase 1 (Ovis aries, UniProt P05979); test: Inhibition of ovine COX1
T1 sequence (P05979 whole entry): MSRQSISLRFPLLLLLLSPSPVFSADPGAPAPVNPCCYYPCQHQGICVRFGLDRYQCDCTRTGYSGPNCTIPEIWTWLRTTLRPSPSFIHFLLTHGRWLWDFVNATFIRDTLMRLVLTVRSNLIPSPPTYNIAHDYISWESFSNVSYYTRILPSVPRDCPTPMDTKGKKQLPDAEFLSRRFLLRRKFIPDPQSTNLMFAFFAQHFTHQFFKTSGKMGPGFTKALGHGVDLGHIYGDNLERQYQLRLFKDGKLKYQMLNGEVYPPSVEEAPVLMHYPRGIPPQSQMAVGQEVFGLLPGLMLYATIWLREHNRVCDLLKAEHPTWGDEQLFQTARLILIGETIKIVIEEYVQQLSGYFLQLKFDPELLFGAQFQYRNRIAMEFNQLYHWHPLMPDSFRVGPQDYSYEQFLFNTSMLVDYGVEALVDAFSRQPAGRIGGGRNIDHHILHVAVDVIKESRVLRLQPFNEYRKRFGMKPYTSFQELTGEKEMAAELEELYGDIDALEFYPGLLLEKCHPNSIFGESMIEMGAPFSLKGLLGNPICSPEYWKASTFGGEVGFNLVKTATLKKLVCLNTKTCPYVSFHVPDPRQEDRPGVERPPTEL

[3] = target: T2, Prostaglandin G/H synthase 2 (Mus musculus, UniProt Q05769); test: Inhibition of mouse COX2
T2 sequence (Q05769 whole entry): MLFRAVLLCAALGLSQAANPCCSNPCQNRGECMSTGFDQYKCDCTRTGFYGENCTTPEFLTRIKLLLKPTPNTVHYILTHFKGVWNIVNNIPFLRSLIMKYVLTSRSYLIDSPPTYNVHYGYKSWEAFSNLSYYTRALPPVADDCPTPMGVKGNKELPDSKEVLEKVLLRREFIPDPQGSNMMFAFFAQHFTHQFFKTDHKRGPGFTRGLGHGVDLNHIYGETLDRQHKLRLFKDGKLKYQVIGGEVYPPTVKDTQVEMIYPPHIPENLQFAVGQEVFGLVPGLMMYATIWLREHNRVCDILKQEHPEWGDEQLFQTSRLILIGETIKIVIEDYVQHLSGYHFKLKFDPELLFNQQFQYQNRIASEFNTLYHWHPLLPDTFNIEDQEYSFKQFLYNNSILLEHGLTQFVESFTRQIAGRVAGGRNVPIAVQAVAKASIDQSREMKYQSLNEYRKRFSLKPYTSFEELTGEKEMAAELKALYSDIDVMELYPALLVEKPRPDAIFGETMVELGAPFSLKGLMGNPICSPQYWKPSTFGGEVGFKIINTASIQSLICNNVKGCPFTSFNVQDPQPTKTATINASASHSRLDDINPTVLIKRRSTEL

Rattus norvegicus [4] = test: Antiinflammatory activity against carrageenan-induced paw edema in Sprague-Dawley rat at 50 mg/kg, po after 5 hrs; assay type: functional
[5] = Inhibition of ovine COX1 at 0.5 uM
[6] = Inhibition of ovine COX1 at 25 uM

Compound | IC50 [2] [nM] | IC50 [3] [nM] | inhibition [5] [%] | inhibition [6] [%] | inhibition in vivo at 50 mg/kg (Rattus norvegicus [1]) [%] | inhibition in vivo at 50 mg/kg (Rattus norvegicus [4]) [%]
COc1ccc(-n2c(-c3ccc(S(C)(=O)=O)cc3)cnc2SC)cc1 | 2610 | > 25000 | – | – | 41.3 | 34.3
CCSc1ncc(-c2ccc(S(C)(=O)=O)cc2)n1-c1ccccc1 | 580 | > 25000 | – | – | 89.7 | 51.1
CCSc1ncc(-c2ccc(S(C)(=O)=O)cc2)n1-c1ccc(Cl)cc1 | 820 | > 25000 | – | – | 53.8 | 52.7
CSc1ncc(-c2ccc(S(C)(=O)=O)cc2)n1-c1ccccc1 | 580 | > 25000 | – | – | 74.1 | 61.6
Cc1ccc(-c2cc(C(F)(F)F)nn2-c2ccc(S(N)(=O)=O)cc2)cc1 [CELECOXIB] | – | – | – | – | 70.5 | 50
CCSc1ncc(-c2ccc(S(C)(=O)=O)cc2)n1-c1ccc(Br)cc1 | > 4000 | > 25000 | – | – | 66 | 59

More lines, main results first:

IC50 [2] [nM] | IC50 [3] [nM] | inhibition [5] [%] | inhibition [6] [%] | Compound | inhibition in vivo at 50 mg/kg (Rattus norvegicus [1]) [%] | inhibition in vivo at 50 mg/kg (Rattus norvegicus [4]) [%]
470 | > 25000 | – | – | CSc1ncc(-c2ccc(S(C)(=O)=O)cc2)n1-c1ccc(Cl)cc1 | 59.5 | 42.7
430 | > 25000 | – | – | CSc1ncc(-c2ccc(S(C)(=O)=O)cc2)n1-c1ccc(Br)cc1 | 90.7 | 88
520 | > 25000 | – | – | CSc1ncc(-c2ccc(S(C)(=O)=O)cc2)n1-c1ccc(F)cc1 | 40 | 18.7
510 | > 25000 | – | – | CCSc1ncc(-c2ccc(S(C)(=O)=O)cc2)n1-c1ccc(OC)cc1 | – | –
500 | > 25000 | 21 | 29 | CCSc1ncc(-c2ccc(S(C)(=O)=O)cc2)n1-c1ccc(F)cc1 | 65 | 43
